How the values were obtained:
[1] = test system: MC38-OVA tumor cells; assay: Murine MC38-OVA tumor model, intratumoral MgCl2 vs NaCl in bilateral tumors; format: in vivo, mice; settings: for Tumor growth: 3 mM MgCl2 intratumoral vs 3 mM NaCl in contralateral tumor, every third day
Procedure: FIG. 1: Intratumoral magnesium administration improves adaptive anti-tumor immunity. (a) Schematic of experimental design. B1/6 mice, either immunized with OVA or left untreated, were inoculated subcutaneously with MC38-OVA tumor cells bilaterally on the flanks. From day 7, injection of 3 mM NaCl solution was applied in left flank tumor, whereas 3 mM MgCl2 solution was injected in contralateral tumor. This regimen was repeated every third day for a total of 8 cycles. (b) Tumor growth curves in non-immunized mice (n=20) (left panel), and immunized mice (n=19) (right panel). (c) Tumor growth curves in ±CD8 depleted mice (n=6-17). Results were pooled from 2 independent experiments, with n=6-12 mice each. (d) Absolute numbers of tumor-infiltrating CD8^+ T cells. (e) Number of tumor-infiltrating CD8^+ T cells positive for Ki67 (left panel), Granzyme B (middle panel) and CD25 (right panel). (f) Cell number of tumor-infiltrating CD8^+ T cells expressing PD-1 and Tim3. (g) Schematic of experimental design. B1/6 mice, immunized with OVA, were inoculated subcutaneously with MC38-OVA tumor cells unilaterally on the flank. From day 5, intratumoral injections of either 3 mM NaCl or 3 mM MgCl2 were initiated, and repeated every third day for 8 cycles. Mice were additionally injected with 200 μg i.p. of isotype control (IgG2a) or anti-PD-1 Ab on day 9, 12, and 15. (h) Tumor growth curves (n=13-14) and (i) host survival (n=13-14). Results were pooled from 2 independent experiments (b, h, i). Unless stated otherwise, 6 to 12 weeks old female mice were used for experiments. In assays with pre-immunized mice, mice were immunized 19 days before tumor implantation by subcutaneous injection of 100 μg of OVA protein (Invivogen) and 50 μg of CpG-B ODN 1826 (Eurogentec), resuspended in 100 μL of PBS. For tumor implantation, mice were inoculated subcutaneously onto the flanks with 0.5×10^6 MC38-OVA cells, resuspended in 100 μL of PBS. In bilateral tumor experiments, mice received 50 μL intra-tumoral injections of either 3 mM NaCl or 3 mM MgCl2 (both diluted in ddH2O). Injections of NaCl solution was applied in left flank tumor, whereas MgCl2 solution was injected in contralateral tumor. I.t. injections were initiated once tumors were palpable, usually between day 5 and 10 after tumor injection. Injections were repeated every third day. Tumor size was quantified using a caliper and tumor volume was calculated using a rational ellipse formula (α2×β×π6, α being the shorter axis and β the longer axis). […] Tumor tissue was isolated from mice, weighed and minced using razor blades. Tissue was then digested using accutase (PAA), collagenase IV (Worthington), hyaluronidase (Sigma), and DNAse type IV (Sigma) for 60 min at 37° C. with constant shaking. The cell suspensions were filtered using a cell strainer (70 μm). Precision Counting beads (Biolegend) were added before staining to quantify the number of cells per gram of tumor. Single cell suspensions were blocked with rat anti-mouse FcγIII/II receptor (CD16/CD32) blocking antibodies (‘Fc-block’) and stained with live/dead cell-exclusion dye. Cells were then incubated with fluorophore-conjugated antibodies directed against cell surface antigens, washed and resuspended in FACS buffer (PBS+2% FBS). For intracellular/intranuclear antigens, cells stained with cell surface antibodies were fixed and permeabilized using Foxp3/transcription factor staining buffer (eBioscience) prior to incubation with antibodies directed against intracellular antigens. CD8 T cells are essential for antitumor immunity. To explore the role of Mg^2+ in the tumor microenvironment, and specifically its functional impact on T cell immunity, we examined the effect of intratumoral (i.t.) Mg^2+ administration in the MC38-OVA tumor model. Specifically, mice were either immunized against ovalbumin (OVA) or left untreated before subcutaneous implantation of OVA-expressing MC38 colorectal carcinoma cells bilaterally on the flanks. […]

[2] = test system: MC38-OVA tumor cells; assay: Murine MC38-OVA tumor model, in vivo PD-1 blockade; settings: OVA immunized mice; 3 mM MgCl2 or NaCl i.t. every third day, 8 cycles; anti-PD-1 Ab or isotype 200 μg i.p. day 9, 12, 15
Procedure: FIG. 1: Intratumoral magnesium administration improves adaptive anti-tumor immunity. (a) Schematic of experimental design. B1/6 mice, either immunized with OVA or left untreated, were inoculated subcutaneously with MC38-OVA tumor cells bilaterally on the flanks. From day 7, injection of 3 mM NaCl solution was applied in left flank tumor, whereas 3 mM MgCl2 solution was injected in contralateral tumor. This regimen was repeated every third day for a total of 8 cycles. (b) Tumor growth curves in non-immunized mice (n=20) (left panel), and immunized mice (n=19) (right panel). (c) Tumor growth curves in ±CD8 depleted mice (n=6-17). Results were pooled from 2 independent experiments, with n=6-12 mice each. (d) Absolute numbers of tumor-infiltrating CD8^+ T cells. (e) Number of tumor-infiltrating CD8^+ T cells positive for Ki67 (left panel), Granzyme B (middle panel) and CD25 (right panel). (f) Cell number of tumor-infiltrating CD8^+ T cells expressing PD-1 and Tim3. (g) Schematic of experimental design. B1/6 mice, immunized with OVA, were inoculated subcutaneously with MC38-OVA tumor cells unilaterally on the flank. From day 5, intratumoral injections of either 3 mM NaCl or 3 mM MgCl2 were initiated, and repeated every third day for 8 cycles. Mice were additionally injected with 200 μg i.p. of isotype control (IgG2a) or anti-PD-1 Ab on day 9, 12, and 15. […]

[Mg+2] [Mg^2+, Magnesium]
Tumor-infiltrating CD8^+ T cells expressing PD-1 and Tim3 ([1]; Mg^2+ treated vs NaCl tumors): significantly more often (co-)expressed | Tumor-infiltrating CD8^+ T cells positive for CD25 ([1]; Mg^2+ treated vs NaCl tumors): more | Tumor-infiltrating CD8^+ T cells positive for Granzyme B ([1]; Mg^2+ treated vs NaCl tumors): more | Tumor-infiltrating CD8^+ T cells positive for Ki67 ([1]; Mg^2+ treated vs NaCl tumors): more | Number of tumor-infiltrating CD8^+ T cells ([1]; Mg^2+ treated vs NaCl tumors, flow cytometry): increased | Tumor growth ([1]; OVA pre-immunized mice): significantly reduced tumor growth | Tumor growth ([1]; non-immunized mice): comparable | Host survival [2]: significantly improved animal survival | Tumor growth [2]: improving immune control significantly
